{
  "source": "patent US7238469B2",
  "about": "“Carbon monoxide improves outcomes in tissue and organ transplants and suppresses apoptosis” (priority 2001, dated 2007)",
  "test_system": "islets transplanted under the kidney capsule of diabetic syngeneic recipients",
  "assay": "Syngeneic marginal mass islet transplantation, time to normoglycemia",
  "type": "in vivo, C57BL/6 mice",
  "settings": "250 islets pre-incubated two hours in medium pre-saturated with 1% CO",
  "protocol": "Cells and islets were exposed to 1% carbon monoxide in compressed air balanced with 5% CO2, as described elsewhere (see, e.g., Otterbein et al., Nature Med. 6:422–428, 2000). Islets were incubated in RPMI medium pre-saturated with carbon monoxide (4° C. overnight, 1% CO, 5% CO2) for two hours at 37° C. while treatment with 1% CO, 5% CO2 was continued.\nMale C57BL/6 were purchased from Charles River Laboratories (Wilmington, Mass.) and housed in accordance with guidelines from the NIH. The experiments were approved by the Institutional Animal Care and Use Committee (IACUC). Recipient mice (8 weeks old) were rendered diabetic by a single intraperitoneal injection (220 mg/kg) of StreptozotocinO (Sigma) dissolved in citrate buffer. Mice received transplants if 2 consecutive non-fasting blood glucose levels of greater than 350 mg/dl were obtained from a whole blood sample.\n250 islets 150–250 îm in diameter were hand-picked using a dissecting microscope. Islets were transplanted under the kidney capsule as described previously (Kaufman et al., J. Exp. Med. 172:291–302, 1990). […]\nWhether carbon monoxide pre-incubation of islet grafts prior to transplantation results in better functional performance in vivo was investigated (FIGS. 6A–B). […] After transplantation, blood glucose levels were determined on a daily basis. […]",
  "data": [
    {"smiles": "[C-]#[O+]", "note": "[CO, carbon monoxide]", "values": [
      {"measurement": "time needed to reach normoglycemia (median)", "result": 7, "unit": "days"}
    ]}
  ]
}
